For series [1], the system named is adult female rats. In words: fertility of adult female rats treated before mating. It is filed as in vivo. The following applies: 25 mcg/kg b.w./day per os for 10 days before mating.
Series [2] has as its system pregnant rats. Put plainly: gestation of treated pregnant rats. In kind it is in vivo. To be noted: 25 mcg/kg b.w./day per os, control rats had normal delivery.
Series [3] has as its system mice. The following applies: oral route, cited from earlier work.
Series [4] relates to rats. To be noted: oral route, cited from earlier work.
Series [5] has as its system prolactin incretion. Put plainly: inhibiting action on prolactin incretion after a single oral dose. In kind it is in vivo. To be noted: single oral dose of 100 mcg/kg b.w., female rats, time after treatment. As for the experimental part:
At a single oral dose of 100 micrograms per kg body weight (100 mcg/kg b.w.) in female rats, the inhibiting action on the prolactin incretion remains remarkably high more than 72 hours after treatment.

Series [6] deals with adult female rats (Sprague Dawley). Put plainly: pup weight and starvation during lactation of treated mother rats. It is filed as in vivo. As for the experimental part: 15 adult female rats (Sprague Dawley) at their second delivery were randomly divided into 3 groups of 5 animals each. One group served as control, the other two groups were treated with different dosages of cabergoline: animals of the former group received it at the dose of 25 mcg/kg b.w./day; animals of the latter one received it at the dose of 100 mcg/kg b.w./day, starting from the day following the delivery.
Cabergoline was administered with a pellet of standard feed for breeding rats (Altromin MT@ of the firm Rieper, Bolzano). After complete consumption of the medicated pellet, food and water were made available "ad libitum".
At the dose of 100 mcg/kg b.w./day 100% of pups starved already within the first week of lactation (see Table 1).

Series [7] deals with young female rats. Put plainly: onset of sexual maturity in young female rats at impuberal stage. The following applies: 25 mcg/kg body weight/day per os. In kind it is in vivo.

Read-outs that look alike come from different tables or passages of the source.

In the case of `C=CCN1C[C@H](C(=O)N(CCCN(C)C)C(=O)NCC)C[C@@H]2c3cccc4[nH]cc(c34)C[C@H]21` [cabergoline, 1-ethyl-3-(3'-dimethylaminopropyl)-3-(6'-allylergoline-8'β-carbonyl)-urea], the fertility result in series [1] is on record as “completely inhibited”. In addition, the gestation result in series [2] is “interrupted their gestation after about ten days”. The “LD50 (Lethal Dose 50)” value in series [3] (female mice) is given as 200 mg/kg b.w; in series [3] (male mice), 350 mg/kg b.w. Moreover, the LD50 in series [4] (female rats (second value of 'respectively')) is 350 mg/kg b.w; in series [4] (male rats (first value of 'respectively')) it was 400 mg/kg b.w. In series [5], the “time for which the inhibiting action on the prolactin incretion remains remarkably high” value is on record as “more than 72 hours”. Further, the “Pups mean weight (in grams) at lactation days 7th” value in series [6] (25 mcg/kg b.w./day to the mother, 7th day of lactation, mean ± SD) was determined as 7.9 ±1.6 grams. In series [6] (25 mcg/kg b.w./day to the mother, 14th day of lactation, mean ± SD), the “Pups mean weight (in grams) at lactation days 14th” value worked out at 10.5 ±0.5 grams. Also, the dead pups in series [6] (25 mcg/kg b.w./day to the mother, 14th day of lactation, of 63 pups) is recorded as 40; in series [6] (100 mcg/kg b.w./day to the mother, 7th day of lactation, of 65 pups) it was “- (65 dead)”. In addition, the “Pups mean weight (in grams) at lactation days 21st” value in series [6] (25 mcg/kg b.w./day to the mother, 21st day of lactation, mean ± SD) was found to be 14.7 ±0.7 grams. Besides, the “body weight increase of the pups” value in series [6] (25 mcg/kg b.w./day to the mother, at the 7th, 14th and 21st day of lactation) is recorded as “remarkably reduced”. The pups starved result in series [6] (25 mcg/kg b.w./day to the mother, within the second week of lactation) is on record as “about 60%”; in series [6] (100 mcg/kg b.w./day to the mother, within the first week of lactation), 100%. In series [7], the “onset of the sexual maturity” value is “remarkably delayed”.

The values above are taken from patent publication EP0470325A1, “Composition and method to keep under control the reproduction rate of vertebrate animals by means of a composition containing peripheral dopamine agonists” (priority 1990, dated 1992).
